Laboratory results taken from ChEMBL document CHEMBL4411259, “Medicinal properties of terpenes found in Cannabis sativa and Humulus lupulus” (Eur J Med Chem, 2018).
pEC50, pIC50, pKi: −log10 of the molar value. ≈ marks a conversion by molar mass, not a printed value.

How the values were obtained:
HepG2 [1] = experiment: Antiinvasive activity against human HepG2 cells by matrigel-based transwell assay; type: functional, cell-based
MHCC97H = experiment: Antiinvasive activity against human MHCC97H cells by matrigel-based transwell assay; type: functional, cell-based
SMMC-7721 = experiment: Antiinvasive activity against human SMMC7721 cells by matrigel-based transwell assay; type: functional, cell-based
RAW264.7 = experiment: Inhibition of LPS-induced nitric oxide production in mouse RAW264.7 cells measured after 20 hrs by Griess assay; type: functional, cell-based; settings: RAW264.7, 20 h
SW-620 = experiment: Cytotoxicity against human SW620 cells assessed as inhibition of cell proliferation after 24 hrs by WST1 assay; type: functional, cell-based; settings: SW-620, 24 h
Trichophyton rubrum = experiment: Antimicrobial activity against Trichophyton rubrum after 7 days by microdilution method; type: functional; settings: 168 h
U-937 = experiment: Cytotoxicity against human U937 cells after 3 days by WST1 assay; type: functional, cell-based; settings: U-937, 72 h
T47D = experiment: Cytotoxicity against human T47D cells assessed as inhibition of cell proliferation after 24 hrs by WST1 assay; type: functional, cell-based
Mus musculus [2] = species: Mus musculus; experiment: Sedative effect in Swiss mouse assessed as reduction in motility at plasma concentration of 27 nM; type: functional; set-up: scale not given: the % may be the effect or the level left
HepG2 [3] = experiment: Cytotoxicity against human HepG2 cells assessed as inhibition of cell proliferation after 24 hrs by WST1 assay; type: functional, cell-based; settings: HepG2, 24 h
HeLa = experiment: Cytotoxicity against human HeLa cells after 3 days by WST1 assay; type: functional, cell-based; settings: 72 h
Escherichia coli = experiment: Antibacterial activity against Escherichia coli CMCC 44102 after 24 hrs by broth dilution method; type: functional
Candida albicans = experiment: Antimicrobial activity against Candida albicans; type: functional
Mus musculus [4] = species: Mus musculus; experiment: Sedative effect in Swiss mouse assessed as reduction in motility at 34 nM; type: functional; set-up: scale not given: the % may be the effect or the level left
Gardnerella vaginalis = experiment: Antimicrobial activity against Gardnerella vaginalis; type: functional
Mus musculus [5] = species: Mus musculus; experiment: Sedative effect in Swiss mouse assessed as reduction in motility; type: functional; set-up: scale not given: the % may be the effect or the level left
U373 MG = experiment: Cytoprotective activity against H2O2-induced cell death in human U373MG cells assessed as increase in cell viability preincubated for 24 hrs followed by H2O2-stimulation and measured after 30 mins by MTT assay; type: functional, cell-based, U-373MG ATCC
HT-29 = experiment: Cytotoxicity against human HT-29 cells assessed as reduction in cell viability after 24 hrs by MTT assay; type: functional, cell-based; settings: HT-29, 24 h
Cannabinoid receptor 2 [6] = target: T1, Cannabinoid receptor 2 (Homo sapiens, UniProt P34972); experiment: Agonist activity at recombinant human Cb2 receptor expressed in CHOK1 cells assessed as inhibition of forskolin-stimulated cAMP levels measured up to 30 mins by luminescence assay; type: functional, cell-based
Cannabinoid receptor 2 [7] = target: T1, Cannabinoid receptor 2; experiment: Displacement of [3H]CP55940 from human CB2 expressed in CHOK1 cell membranes after 2 hrs by liquid scintillation counting method
[8] = Antitumor activity against human HubCCA1 cells xenografted in BALB/c nude mouse assessed as reduction in tumor size at 100 mg/kg, po administered once daily for 30 days measured every 3 consecutive days during compound dosing; type: functional; set-up: scale not given: the % may be the effect or the level left
[9] = Antitumor activity against human HubCCA1 cells xenografted in BALB/c nude mouse assessed as mouse survival at 100 mg/kg, po administered once daily for 30 days; type: functional
[10] = Antitumor activity against human HubCCA1 cells xenografted in BALB/c nude mouse assessed as reduction in lung metastasis at 100 mg/kg, po administered once daily for 30 days measured post last dose by haematoxylin-eosin staining based assay; type: functional; set-up: scale not given: the % may be the effect or the level left
[11] = target: T2, Transient receptor potential cation channel subfamily A member 1 (Homo sapiens, UniProt O75762); experiment: Agonist activity at human TRPA1
Rattus norvegicus = experiment: Antiischemic stroke activity in iv dosed Sprague-Dawley rat middle cerebral artery occlusion-induced ischemia-reperfusion injury model assessed as decrease in infarct size by TTC staining based assay; type: functional
[12] = target: T2, Transient receptor potential cation channel subfamily A member 1; experiment: Antagonist activity at TRPA1 (unknown origin) expressed in Xenopus laevis oocytes assessed as inhibition of mustard oil-induced currents by two-electrode voltage clamp method; type: cell-based
[13] = Toxicity in po dosed albino Wistar rat; type: organism-based; settings: in vivo
[14] = target: Neuronal acetylcholine receptor subunit alpha-7 (Homo sapiens, UniProt P36544); experiment: Antagonist activity at human alpha7 nACHR expressed in Xenopus laevis oocytes assessed as inhibition of acetylcholine-induced currents at -70 mV holding potential by electrophysiology; type: cell-based
Leukemia cell = experiment: Cytotoxicity against ALL/AML patient derived primary leukemia cells after 24 hrs by LDH release assay; type: functional, cell-based; settings: Homo sapiens
[15] = Inhibition of IL1beta-induced nitric oxide production in human primary chondrocytes preincubated for 30 mins followed by IL1beta-stimulation and measured after 24 hrs by Griess assay; type: functional, cell-based
[16] = Dermal toxicity in rabbit; type: organism-based, Oryctolagus cuniculus; settings: in vivo, topical or ocular
[17] = Toxicity in po dosed mouse; type: organism-based; settings: in vivo
[18] = Toxicity in po dosed rat; type: organism-based; settings: in vivo
Coccidioides posadasii = experiment: Antifungal activity against Coccidioides posadasii filamentous phase after 48 hrs by broth microdilution method; type: functional
Histoplasma capsulatum [19] = experiment: Antifungal activity against Histoplasma capsulatum filamentous phase after 7 days by broth microdilution method; type: functional; settings: 168 h
Histoplasma capsulatum [20] = experiment: Antifungal activity against Histoplasma capsulatum yeast phase after 4 days by broth microdilution method; type: functional; settings: 96 h
HL-60 = experiment: Cytotoxicity against human HL60 cells assessed as reduction in cell viability after 24 hrs by MTT assay; type: functional, cell-based; settings: HL-60, 24 h
Duodenum = experiment: Myorelaxant activity in California White rabbit duodenum assessed as relaxation of high-potassium-induced contraction; type: functional, tissue-based; settings: Oryctolagus cuniculus

T2 sequence (O75762 whole entry, the tested form may be a part): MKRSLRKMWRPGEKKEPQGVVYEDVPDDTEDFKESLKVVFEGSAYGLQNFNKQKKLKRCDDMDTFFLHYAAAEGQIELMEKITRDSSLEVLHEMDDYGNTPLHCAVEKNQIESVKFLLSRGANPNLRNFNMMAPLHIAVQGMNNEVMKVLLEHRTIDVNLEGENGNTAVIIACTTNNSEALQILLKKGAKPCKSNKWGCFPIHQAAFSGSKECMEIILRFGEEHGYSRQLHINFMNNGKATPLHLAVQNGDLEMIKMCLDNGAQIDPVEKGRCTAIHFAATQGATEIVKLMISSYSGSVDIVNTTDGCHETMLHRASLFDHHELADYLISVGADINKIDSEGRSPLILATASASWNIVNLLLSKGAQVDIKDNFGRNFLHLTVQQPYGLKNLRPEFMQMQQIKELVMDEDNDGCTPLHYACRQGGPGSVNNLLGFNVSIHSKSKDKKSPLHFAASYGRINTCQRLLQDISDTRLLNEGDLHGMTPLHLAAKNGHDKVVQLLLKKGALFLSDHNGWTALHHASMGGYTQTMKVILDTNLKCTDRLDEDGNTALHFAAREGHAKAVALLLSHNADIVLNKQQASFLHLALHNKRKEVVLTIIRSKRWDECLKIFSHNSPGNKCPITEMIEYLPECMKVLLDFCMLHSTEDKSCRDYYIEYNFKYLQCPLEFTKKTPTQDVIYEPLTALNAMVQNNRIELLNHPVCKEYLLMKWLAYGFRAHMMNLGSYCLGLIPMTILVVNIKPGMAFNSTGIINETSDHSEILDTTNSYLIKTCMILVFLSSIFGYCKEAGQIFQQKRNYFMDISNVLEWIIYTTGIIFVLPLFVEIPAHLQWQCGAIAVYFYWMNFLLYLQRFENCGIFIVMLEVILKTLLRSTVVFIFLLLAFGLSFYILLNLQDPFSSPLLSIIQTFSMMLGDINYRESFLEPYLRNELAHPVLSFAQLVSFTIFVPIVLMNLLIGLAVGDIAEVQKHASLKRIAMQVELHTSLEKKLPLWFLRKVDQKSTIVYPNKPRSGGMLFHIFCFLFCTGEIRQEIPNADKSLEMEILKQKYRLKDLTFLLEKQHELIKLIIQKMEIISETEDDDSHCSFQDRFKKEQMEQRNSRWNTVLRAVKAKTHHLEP
T1 sequence (P34972 whole entry): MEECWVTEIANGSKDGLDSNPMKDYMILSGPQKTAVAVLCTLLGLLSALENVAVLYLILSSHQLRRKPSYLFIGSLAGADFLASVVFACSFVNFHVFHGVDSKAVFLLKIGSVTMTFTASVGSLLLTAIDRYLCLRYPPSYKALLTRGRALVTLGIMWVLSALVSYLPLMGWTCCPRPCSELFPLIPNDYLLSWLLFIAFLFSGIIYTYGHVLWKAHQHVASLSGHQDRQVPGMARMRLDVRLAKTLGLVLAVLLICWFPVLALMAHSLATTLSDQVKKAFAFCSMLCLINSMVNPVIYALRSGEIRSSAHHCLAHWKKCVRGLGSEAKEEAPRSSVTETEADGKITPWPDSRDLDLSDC
Sequence of Neuronal acetylcholine receptor subunit alpha-7 (P36544 whole entry): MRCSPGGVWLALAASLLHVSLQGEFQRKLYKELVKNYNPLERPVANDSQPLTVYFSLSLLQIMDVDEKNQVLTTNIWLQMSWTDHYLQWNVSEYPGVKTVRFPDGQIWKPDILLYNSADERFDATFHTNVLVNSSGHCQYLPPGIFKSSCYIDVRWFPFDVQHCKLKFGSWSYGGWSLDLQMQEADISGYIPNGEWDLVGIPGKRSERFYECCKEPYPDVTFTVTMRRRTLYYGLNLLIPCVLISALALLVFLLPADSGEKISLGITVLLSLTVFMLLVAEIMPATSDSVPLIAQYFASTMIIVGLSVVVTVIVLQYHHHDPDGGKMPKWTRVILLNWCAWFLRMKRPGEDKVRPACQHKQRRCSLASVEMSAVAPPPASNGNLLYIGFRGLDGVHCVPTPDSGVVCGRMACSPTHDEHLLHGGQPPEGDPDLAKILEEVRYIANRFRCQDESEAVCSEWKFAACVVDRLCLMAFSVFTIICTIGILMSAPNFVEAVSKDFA

C=C(C)[C@H]1CC=C(CO)CC1
pIC50 (HepG2 [1]): 4.00
pIC50 (MHCC97H): 4.00
pIC50 (SMMC-7721): 4.00

C/C1=C\CC(C)(C)/C=C/C(=O)/C(C)=C/C(O)C1 (stereo not drawn)
pIC50 (RAW264.7): 4.85

C=C[C@@](C)(O)CCC=C(C)C
pIC50 (SW-620): 3.65
MIC (Trichophyton rubrum): 260 µg/mL (≈ 1690 µM)
pIC50 (U-937): 5.52
pIC50 (T47D): 3.65
Activity (Mus musculus [2]): 73%
pIC50 (HepG2 [3]): 3.54
pIC50 (HeLa): 4.96

CC1=CCC(C(C)(C)O)CC1 (stereo not drawn)
MIC (Escherichia coli): 0.78 uL/ml
MIC (Candida albicans): 0.125 %v/v
Activity (Mus musculus [4]): 45%
MIC (Gardnerella vaginalis): 0.06 %v/v

CC1=CC[C@@H]2C[C@H]1C2(C)C [1R-(+)-ALPHA-PINENE]
Activity (Mus musculus [5]): 14%
pIC50 (U373 MG): 4.10

C/C1=C\CC/C(C)=C/CC(C)(C)/C=C/C1 [ALPHA-HUMULONE]
pIC50 (HT-29): 4.27

C=C1CC/C=C(\C)CC[C@@H]2[C@@H]1CC2(C)C [BETA-CARYOPHYLLENE]
pEC50 (Cannabinoid receptor 2 [6]): 5.72
pKi (Cannabinoid receptor 2 [7]): 6.82

C=C1CCC[C@]2(C)CC[C@@H](C(C)(C)O)C[C@@H]12 [BETA-EUDESMOL]
Activity [8]: 92%
Activity [9]: 64%
Activity [10]: 95%
pEC50 [11]: 4.48

CC1(C)C2CCC1(C)C(O)C2 (stereo not drawn) [BORNEOL]
ED50 (Rattus norvegicus): 0.36 mg/kg
pIC50 [12]: 3.52

CC(C)=CCC/C(C)=C/CO [GERANIOL]
LD50 [13]: 3600 mg/kg

CC(C)=CCC[C@](C)(O)[C@@H]1CC=C(C)CC1 [LEVOMENOL]
pIC50 [14]: 5.51
pIC50 (Leukemia cell): 4.85

C=CC(=C)CCC=C(C)C [MYRCENE]
IC50 [15]: 37.3 µg/mL (≈ 274 µM)

C=CC(C)(O)CC/C=C(\C)CCC=C(C)C (stereo not drawn) [NEROLIDOL]
LD50 [16]: > 2000 mg/kg
LD50 [17]: 10000 mg/kg
LD50 [18]: 5000 mg/kg

CC1=CCC(O)(C(C)C)CC1 (stereo not drawn) [TERPINEOL]
MIC (Coccidioides posadasii): 250 µg/mL (≈ 1620 µM)
MIC (Histoplasma capsulatum [19]): 30 µg/mL (≈ 194 µM)
MIC (Histoplasma capsulatum [20]): 10 µg/mL (≈ 64.8 µM)
pIC50 (HL-60): 4.52
pIC50 (Duodenum): 3.77
